PubChem BioAssay AID248 (DTP/NCI, 2004)
“And” between values parts separate entries of the source, which are not always exact repeats. Equal values may be shown once. Toxic doses and inconclusive results are not listed.

System: L1210 leukemia ip in BDF1 mice, survival T/C
Test: NCI In Vivo Anticancer Drug Screen. Data for tumor model L1210 Leukemia (intraperitoneal) in B6D2F1 (BDF1) mice
Conditions: endpoint: mean survival time, higher = longer survival
Summary of the method: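 Read-out is survival time, reported as the treated-group measurement over the vehicle-control measurement.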

[1] = dose: 100.0 mg/kg/injection, schedule: Q01DX009 (ip), vehicle: Klucel (hydroxypropylcellulose) (HPC)
[2] = dose: 100.0 mg/kg/injection, schedule: Q04DX002 (ip), vehicle: Klucel (hydroxypropylcellulose) (HPC)
[3] = dose: 200.0 mg/kg/injection, schedule: Q01DX009 (ip), vehicle: Klucel (hydroxypropylcellulose) (HPC)
[4] = dose: 200.0 mg/kg/injection, schedule: Q04DX002 (ip), vehicle: Klucel (hydroxypropylcellulose) (HPC)
[5] = dose: 400.0 mg/kg/injection, schedule: Q01DX009 (ip), vehicle: Klucel (hydroxypropylcellulose) (HPC)
[6] = dose: 400.0 mg/kg/injection, schedule: Q04DX002 (ip), vehicle: Klucel (hydroxypropylcellulose) (HPC)
[7] = dose: 50.0 mg/kg/injection, schedule: Q01DX001 (ip), vehicle: saline
[8] = dose: 100.0 mg/kg/injection, schedule: Q01DX001 (ip), vehicle: saline
[9] = dose: 200.0 mg/kg/injection, schedule: Q01DX001 (ip), vehicle: saline
[10] = dose: 400.0 mg/kg/injection, schedule: Q01DX001 (ip), vehicle: saline
[11] = dose: 100.0 mg/kg/injection, schedule: Q04DX003 (ip), vehicle: saline with Tween-80
[12] = dose: 200.0 mg/kg/injection, schedule: Q04DX003 (ip), vehicle: saline with Tween-80
[13] = dose: 100.0 mg/kg/injection, schedule: Q04DX003 (ip), vehicle: Klucel (hydroxypropylcellulose) (HPC)
[14] = dose: 50.0 mg/kg/injection, schedule: Q01DX009 (ip), vehicle: saline with Tween-80
[15] = dose: 100.0 mg/kg/injection, schedule: Q01DX001 (ip), vehicle: carboxymethylcellulose (CMC)
[16] = dose: 100.0 mg/kg/injection, schedule: Q01DX009 (ip), vehicle: saline with Tween-80
[17] = dose: 200.0 mg/kg/injection, schedule: Q04DX003 (ip), vehicle: Klucel (hydroxypropylcellulose) (HPC)
[18] = dose: 400.0 mg/kg/injection, schedule: Q04DX003 (ip), vehicle: Klucel (hydroxypropylcellulose) (HPC)

CCOC(=O)C(=O)Nc1ncn[nH]1
T/C (dose: 100.0 mg/kg/injection, schedule: Q01DX005 (ip), vehicle: Klucel (hydroxypropylcellulose) (HPC)): 95 % of control | T/C [1]: 96 % of control | T/C [2]: 96 % of control | T/C (dose: 200.0 mg/kg/injection, schedule: Q01DX005 (ip), vehicle: Klucel (hydroxypropylcellulose) (HPC)): 98 % of control | T/C [3]: 104 % of control | T/C [4]: 90 % of control | T/C (dose: 400.0 mg/kg/injection, schedule: Q01DX005 (ip), vehicle: Klucel (hydroxypropylcellulose) (HPC)): 103 % of control | T/C [5]: 93 % of control | T/C [6]: 101 % of control

COc1ccc(/C=N/O)cc1
T/C [7]: 100 % of control | T/C [8]: 93 % of control | T/C [9]: 100 % of control | T/C [10]: 96 % of control

CCOC(=O)c1cnc(NN)nc1Nc1ccccc1Cl
T/C [11]: 92 % of control | T/C [12]: 96 % of control

CC(=O)c1ccccc1Br
T/C [3]: 100 % of control | T/C [5]: 97 % of control

COC(=O)c1cc(C)ccc1C
T/C [8]: 101 % of control | T/C [9]: 98 % of control | T/C [10]: 101 % of control

Clc1ccc(SCN2CCCCC2)cc1
T/C (dose: 25.0 mg/kg/injection, schedule: Q04DX003 (ip), vehicle: Klucel (hydroxypropylcellulose) (HPC)): 93 % of control | T/C (dose: 50.0 mg/kg/injection, schedule: Q04DX003 (ip), vehicle: Klucel (hydroxypropylcellulose) (HPC)): 95 % of control | T/C [13]: 93 % of control and 95 % of control

CCOC(=O)C(=O)c1ccc[nH]1
T/C (dose: 100.0 mg/kg/injection, schedule: Q01DX001 (ip), vehicle: saline with Tween-80): 114 % of control | T/C [11]: 94 % of control | T/C (dose: 200.0 mg/kg/injection, schedule: Q01DX001 (ip), vehicle: saline with Tween-80): 115 % of control | T/C [12]: 101 % of control | T/C (dose: 400.0 mg/kg/injection, schedule: Q01DX001 (ip), vehicle: saline with Tween-80): 111 % of control | T/C (dose: 400.0 mg/kg/injection, schedule: Q04DX003 (ip), vehicle: saline with Tween-80): 92 % of control

O=C1C=CC(=O)C(SCCC(=O)O)=C1
T/C [14]: 102 % of control | T/C [15]: 101 % of control | T/C [16]: 97 % of control | T/C (dose: 200.0 mg/kg/injection, schedule: Q01DX009 (ip), vehicle: saline with Tween-80): 96 % of control

O=C1OCN(c2ccccc2)/C1=C/c1ccccc1
T/C [8]: 89 % of control | T/C [9]: 94 % of control | T/C [10]: 93 % of control

CC12CCC3C4CCC(=O)C(O)=C4CCC3C1CCC2OC(=O)CCC1CCCC1 (stereo not given)
T/C (dose: 100.0 mg/kg/injection, schedule: Q01DX009 (sc), vehicle: steriod suspending solution): 96 % of control | T/C (dose: 200.0 mg/kg/injection, schedule: Q01DX009 (sc), vehicle: steriod suspending solution): 107 % of control | T/C (dose: 400.0 mg/kg/injection, schedule: Q01DX009 (sc), vehicle: steriod suspending solution): 100 % of control

CC(=C1C2CCC1C(C(=O)N(C)C)C2C(=O)N(C)C)C(Cl)(Cl)Cl (stereo not given)
T/C [2]: 94 % of control | T/C [4]: 110 % of control | T/C [6]: 90 % of control

Cc1cc(Cl)c(Cl)cc1NC(=O)c1c(Br)c(Br)c(Br)c(Br)c1C(=O)O
T/C [1]: 108 % of control | T/C [3]: 96 % of control | T/C [5]: 95 % of control

CC(C)(C)c1ccc(C(=O)C2CC2)cc1
T/C [14]: 90 % of control | T/C [16]: 92 % of control

Cc1ccc(NC(=O)N(CCO)N=O)cc1
T/C (dose: 12.5 mg/kg/injection, schedule: Q01DX001 (ip), vehicle: carboxymethylcellulose (CMC)): 110 % of control | T/C (dose: 25.0 mg/kg/injection, schedule: Q01DX001 (ip), vehicle: carboxymethylcellulose (CMC)): 105 % of control | T/C (dose: 50.0 mg/kg/injection, schedule: Q01DX001 (ip), vehicle: carboxymethylcellulose (CMC)): 103 % of control and 108 % of control | T/C [15]: 100 % of control

CSc1ccc(N2C(=O)C3C(C2=O)C2(Cl)C(Cl)=C(Cl)C3(Cl)C2(Cl)Cl)cc1 (stereo not given)
T/C [1]: 105 % of control | T/C [13]: 101 % of control | T/C [3]: 100 % of control | T/C [17]: 104 % of control | T/C [5]: 103 % of control | T/C [18]: 98 % of control

Cc1ccc(C)c(NC(=O)c2ccccc2Cl)c1
T/C [1]: 115 % of control | T/C [13]: 102 % of control | T/C [3]: 120 % of control | T/C [17]: 100 % of control | T/C [5]: 120 % of control | T/C [18]: 97 % of control

Cc1nc(N)[nH]c(=O)c1CCCNS(=O)(=O)c1ccc(CNC(=O)CBr)cc1
T/C (dose: 37.5 mg/kg/injection, schedule: Q01DX001 (ip), vehicle: Klucel (hydroxypropylcellulose) (HPC)): 107 % of control | T/C (dose: 75.0 mg/kg/injection, schedule: Q01DX001 (ip), vehicle: Klucel (hydroxypropylcellulose) (HPC)): 94 % of control | T/C (dose: 150.0 mg/kg/injection, schedule: Q01DX001 (ip), vehicle: Klucel (hydroxypropylcellulose) (HPC)): 96 % of control

CS(=O)(=O)OCCN(CCOS(C)(=O)=O)c1ccc([N+](=O)[O-])c(Cl)c1
T/C [7]: 96 % of control | T/C [8]: 96 % of control | T/C [9]: 100 % of control | T/C [10]: 91 % of control

CCP(c1ccccc1)c1ccccc1
T/C (dose: 75.0 mg/kg/injection, schedule: Q01DX009 (ip), vehicle: saline sonified): 101 % of control | T/C (dose: 100.0 mg/kg/injection, schedule: Q01DX001 (ip), vehicle: saline sonified): 92 % of control | T/C (dose: 150.0 mg/kg/injection, schedule: Q01DX009 (ip), vehicle: saline sonified): 94 % of control | T/C (dose: 200.0 mg/kg/injection, schedule: Q01DX001 (ip), vehicle: saline sonified): 97 % of control | T/C (dose: 300.0 mg/kg/injection, schedule: Q01DX009 (ip), vehicle: saline sonified): 106 % of control | T/C (dose: 400.0 mg/kg/injection, schedule: Q01DX001 (ip), vehicle: saline sonified): 103 % of control

Nc1nc(=O)n(C2CCCO2)cc1Br (stereo not given)
T/C [8]: 100 % of control | T/C [9]: 103 % of control | T/C [10]: 87 % of control

CC(=O)OC1CCC(NC(=O)N(CCF)N=O)CC1 (stereo not given)
T/C (dose: 20.0 mg/kg/injection, schedule: Q01DX001 (ip), vehicle: other): 298 % of control | T/C (dose: 40.0 mg/kg/injection, schedule: Q01DX001 (ip), vehicle: other): 333 % of control

O=C1OC(c2ccc([N+](=O)[O-])cc2)=N/C1=C\c1cccc2ccccc12
T/C (dose: 100.0 mg/kg/injection, schedule: Q01DX009 (ip), vehicle: other): 96 % of control | T/C (dose: 200.0 mg/kg/injection, schedule: Q01DX009 (ip), vehicle: other): 88 % of control | T/C (dose: 400.0 mg/kg/injection, schedule: Q01DX009 (ip), vehicle: other): 93 % of control

CC(C)C12NC(=O)NC(=O)N1CCS2 (stereo not given)
T/C [7]: 93 % of control | T/C [8]: 96 % of control | T/C [9]: 100 % of control | T/C [10]: 100 % of control

C/C(=N/NC(N)=S)c1ccncc1
T/C (dose: 2.5 mg/kg/injection, schedule: Q01DX009 (ip), vehicle: Klucel (hydroxypropylcellulose) (HPC)): 106 % of control | T/C (dose: 5.0 mg/kg/injection, schedule: Q01DX009 (ip), vehicle: Klucel (hydroxypropylcellulose) (HPC)): 103 % of control | T/C (dose: 10.0 mg/kg/injection, schedule: Q01DX009 (ip), vehicle: Klucel (hydroxypropylcellulose) (HPC)): 94 % of control

C=CCc1ccccc1C
T/C [8]: 106 % of control | T/C [9]: 102 % of control | T/C [10]: 101 % of control

CCCCCCCCCCCCCCCC(=O)NOCc1cscn1
T/C (dose: 100.0 mg/kg/injection, schedule: Q01DX001 (ip), vehicle: other): 104 % of control | T/C (dose: 100.0 mg/kg/injection, schedule: Q04DX003 (ip), vehicle: acetone): 93 % of control | T/C (dose: 200.0 mg/kg/injection, schedule: Q01DX001 (ip), vehicle: other): 94 % of control | T/C (dose: 200.0 mg/kg/injection, schedule: Q04DX003 (ip), vehicle: acetone): 93 % of control | T/C (dose: 400.0 mg/kg/injection, schedule: Q01DX001 (ip), vehicle: other): 98 % of control | T/C (dose: 400.0 mg/kg/injection, schedule: Q04DX003 (ip), vehicle: acetone): 98 % of control

Cc1cc(N)c(S)cc1C
T/C (dose: 12.5 mg/kg/injection, schedule: Q04DX002 (ip), vehicle: saline with Tween-80): 108 % of control | T/C (dose: 25.0 mg/kg/injection, schedule: Q04DX002 (ip), vehicle: saline with Tween-80): 90 % of control | T/C [7]: 94 % of control | T/C (dose: 50.0 mg/kg/injection, schedule: Q04DX002 (ip), vehicle: saline with Tween-80): 101 % of control | T/C [8]: 91 % of control
